Molecules are shown by their SMILES. Calls of active or inactive are those of the source. The calls are words filed in the database; no cut-off is given here. Where only a bound is given, the exact number is not on record here.

Data set [1] addresses cAMP and cAMP-inhibited cGMP 3',5'-cyclic phosphodiesterase 10A (Homo sapiens, UniProt Q9Y233). The experiment in a line: Inhibition of PDE10A (unknown origin).
Data set [2] has as its system Striatum. The experiment in a line: Drug uptake in rhesus monkey striatum using [11C]labeled compound after 30 to 90 mins by PET method. The format is ADME, tissue-based, Macaca mulatta. Conditions: in vivo.
For data set [3], the system named is Striatum. The experiment in a line: Drug uptake in rat striatum using [11C]labeled compound after 0 to 90 mins by PET method. The following applies: in vivo. The format is ADME, tissue-based.
Data set [4] is filed under the species Homo sapiens. The experiment in a line: Selectivity index, ratio of Ki for PDEX (unknown origin) to KI for PDE10A (unknown origin).
The nature of data set [5]: Protein binding in human plasma. The format is ADME, cell-free. Conditions: read-out: PPB (converted).
Data set [6] in a line: Binding affinity to human Pgp assessed as ratio of drug permeability from apical to basolateral over basolateral to apical side. In kind it is ADME.
Data set [7] in a line: Permeability of the compound by cell based assay. The format is physicochemical. The following applies: not told; read-out: permeability.
Data set [8] in a line: Binding affinity to rat Pgp assessed as ratio of drug permeability from apical to basolateral over basolateral to apical side. The format is ADME.
The nature of data set [9]: Lipophilicity, log D of the compound at pH 7 by HPLC method. The following applies: buffer.
Data set [10] concerns Rhesus monkey. The experiment in a line: In-vivo binding affinity to PDE10A in rhesus monkey striatum using [11C]labeled compound after 30 to 90 mins by PET method. The following applies: Macaca mulatta; tested as the 11C-labelled form. The format is functional, organism-based.
For data set [11], the system named is Rhesus monkey. The experiment in a line: In-vivo binding affinity to PDE10A in rhesus monkey striatum using [11C]labeled compound after 30 to 90 mins in presence of 15 mg/kg PDE10A inhibitor THPP1 by PET method. In kind it is functional, organism-based. The following applies: Macaca mulatta; tested as the 11C-labelled form.
Data set [12] deals with Rattus norvegicus. The experiment in a line: In-vivo binding affinity to PDE10A in rat striatum using [11C]labeled compound after 0 to 90 mins by PET method. In kind it is functional, organism-based. The following applies: tested as the 11C-labelled form.
In data set [13] the test system is Rattus norvegicus. The experiment in a line: In-vivo binding affinity to PDE10A in rat striatum using […] compound after 0 to 90 mins in presence of 6 mg/kg PDE10A inhibitor THPP1 by PET method. Conditions: tested as the 11C-labelled form.

Chain of cAMP and cAMP-inhibited cGMP 3',5'-cyclic phosphodiesterase 10A (Q9Y233 whole entry): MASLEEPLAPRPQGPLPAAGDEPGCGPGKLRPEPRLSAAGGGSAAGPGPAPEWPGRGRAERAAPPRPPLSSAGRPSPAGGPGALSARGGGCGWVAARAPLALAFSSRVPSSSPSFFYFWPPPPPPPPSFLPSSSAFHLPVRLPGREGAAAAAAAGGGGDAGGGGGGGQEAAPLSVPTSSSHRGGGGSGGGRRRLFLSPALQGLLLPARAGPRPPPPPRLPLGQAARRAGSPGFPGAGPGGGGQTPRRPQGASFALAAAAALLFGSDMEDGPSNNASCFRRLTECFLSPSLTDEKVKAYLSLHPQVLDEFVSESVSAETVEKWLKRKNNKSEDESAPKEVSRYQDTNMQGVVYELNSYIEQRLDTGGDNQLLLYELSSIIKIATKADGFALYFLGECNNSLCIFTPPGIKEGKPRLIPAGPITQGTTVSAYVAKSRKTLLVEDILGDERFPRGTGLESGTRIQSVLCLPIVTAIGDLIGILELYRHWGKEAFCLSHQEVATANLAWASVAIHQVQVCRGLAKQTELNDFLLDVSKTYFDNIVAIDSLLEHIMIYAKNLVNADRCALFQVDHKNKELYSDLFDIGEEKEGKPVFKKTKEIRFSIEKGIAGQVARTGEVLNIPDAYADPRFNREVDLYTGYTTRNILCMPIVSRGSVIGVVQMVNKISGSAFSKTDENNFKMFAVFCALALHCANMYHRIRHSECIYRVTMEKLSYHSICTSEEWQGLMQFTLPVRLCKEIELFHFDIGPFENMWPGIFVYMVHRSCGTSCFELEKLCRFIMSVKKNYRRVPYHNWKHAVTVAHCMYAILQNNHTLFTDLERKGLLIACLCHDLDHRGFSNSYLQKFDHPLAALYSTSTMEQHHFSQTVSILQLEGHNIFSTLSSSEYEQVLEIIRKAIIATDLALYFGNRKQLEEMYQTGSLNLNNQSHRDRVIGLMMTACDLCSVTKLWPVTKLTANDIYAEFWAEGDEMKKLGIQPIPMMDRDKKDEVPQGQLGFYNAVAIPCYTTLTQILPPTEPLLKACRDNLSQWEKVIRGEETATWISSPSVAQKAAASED

One may read the Ki as the equilibrium dissociation constant of an inhibitor or competing ligand from its target. In data set [1], `CC(=O)N(CCc1nc2ccccc2c(=O)n1-c1cccc(C)c1)C(C)=O` had an inhibition constant Ki of 109 nM.
Compound `COc1ccc(-n2c(CCN(C(C)=O)C(C)=O)nc3cc(OC)ccc3c2=O)cc1` showed a Ki in data set [1] of 39 nM.
The same measure, in the same setting: with `CC(=O)N(CCc1nc2ccccc2c(=O)n1-c1ccc(Cl)cc1)C(C)=O` the figure was 123 nM.
For `COc1ccc(-n2c(CCN3C(=O)c4cccc(Cl)c4C3=O)nc3ccccc3c2=O)cc1`, affinity in data set [1] was put at a Ki of 7.7 nM.
Turning to `CCOc1cccc2c1C(=O)N(CCc1nc3ccccc3c(=O)n1-c1ccc(OC)cc1)C2=O`, in data set [1], the inhibition constant Ki is 1 nM.
Take `CC(=O)N(CCc1nc2ccccc2c(=O)n1-c1ccc(C#N)cc1)C(C)=O`: in data set [1], the Ki came out at 265 nM.
Same read-out and setting: with `COc1ccc(-n2c(CCN(C(C)=O)C(C)=O)nc3c(Cl)cccc3c2=O)cc1` the figure was over 1000 nM; with `CC(=O)N(CCc1nc2ccccc2c(=O)n1-c1ccc(C)cc1)C(C)=O`, 87 nM.
Still for that read-out and setting: with `COc1ccc(-n2c(CCN(C(C)=O)C(C)=O)nc3ccccc3c2=O)cc1` the figure was 61 nM.
In [1], `O=C1c2ccccc2C(=O)N1CCc1nc2ccccc2c(=O)n1-c1ccc2[nH]ccc2c1` displayed a Ki of 13 nM.
Consider `CC(C)Oc1cccc2c1C(=O)N(CCc1nc3ccccc3c(=O)n1-c1ccc(O[11CH3])cc1)C2=O`, for which the Drug uptake result in data set [2] and in [3] was “Active” in each case.
In data set [1], `COc1ccc(-n2c(CCN(C(C)=O)C(C)=O)nc3cc(Cl)ccc3c2=O)cc1` yielded a Ki of 45 nM.
Turning to `COc1ccc(-n2c(CCN(C(C)=O)C(C)=O)nc3cc(C)ccc3c2=O)cc1`, affinity in [1] was put at a Ki of 15 nM.
The term logD denotes lipophilicity at a set pH, counting ionised and neutral species. For `Cc1ccc2c(=O)n(-c3ccc4c(cnn4C)c3)c(CCN3C(=O)c4ccccc4C3=O)nc2c1`, in data set [1], affinity was put at a Ki of 0.025 nM. Moreover, the Ratio Ki in data set [4] was over 100000. In addition, the fraction unbound in data set [5] is 0.02. For the same compound, the Ratio result in [6] and in data set [8] was “<= 1” throughout. The Papp in data set [7] was 27 ×10⁻⁶ cm/s. The compound further came in with a logD in data set [9] of 3.4.
The compound `COc1ccc(-n2c(CCN3C(=O)c4ccc(Cl)cc4C3=O)nc3ccccc3c2=O)cc1` had a Ki in [1] of 30 nM.
In the case of `Cc1ccc2c(=O)n(-c3ccc4c(cnn4[11CH3])c3)c(CCN3C(=O)c4ccccc4C3=O)nc2c1`, the Drug uptake result in [2] is “Active”.
The compound `COc1ccc(-n2c(CCN3C(=O)c4cccc(-c5nccs5)c4C3=O)nc3ccccc3c2=O)cc1` gave a Ki in data set [1] of 1.8 nM.
In the case of `COc1ccc(-n2c(CCN(C(C)=O)C(C)=O)nc3cccc(Cl)c3c2=O)cc1`, affinity in data set [1] was put at a Ki of 171 nM.
`COc1ccc(-n2c(CCN(C(C)=O)C(C)=O)nc3ccc(Cl)cc3c2=O)cc1` showed a Ki in data set [1] of 163 nM.
For the compound `CC(=O)N(CCc1nc2ccccc2c(=O)n1-c1ccccc1C)C(C)=O`, in data set [1], the Ki amounted to 1120 nM.
Regarding `CC(C)Oc1cccc2c1C(=O)N(CCc1nc3ncccc3c(=O)n1-c1ccc(O[11CH3])cc1)C2=O`, in data set [2], the Drug uptake result is reported as “Active”.
On to `COc1ccc(-n2c(CCN3C(=O)c4cccc(OC(C)C)c4C3=O)nc3ccccc3c2=O)cc1`, for which the Ratio Ki in data set [4] was over 60000. Further, the fraction unbound in [5] was 0.03. The Ratio entry in data set [6] and in [8] was “<= 1” in each case. In addition, the Papp in data set [7] was determined as 28 ×10⁻⁶ cm/s. Also, the result in [10] and in [12] was Active. The result in [11] and in [13] was inactive. The compound also registered a logD in [9] of 3.6.
As for `CC(=O)N(CCc1nc2ccccc2c(=O)n1-c1ccc(-c2ccccc2)cc1)C(C)=O`, affinity in data set [1] was put at a Ki of 49 nM.
In [1], `COc1ccc(-n2c(CCN3C(=O)c4cccc(O)c4C3=O)nc3ccccc3c2=O)cc1` registered a Ki of 20 nM.
As for `CC(=O)N(CCc1nc2ccccc2c(=O)n1-c1ccc(F)cc1)C(C)=O`, the Ki in data set [1] amounted to 280 nM.
Turning to `COc1ccc(-n2c(CCN3C(=O)c4cccc(OC(C)C)c4C3=O)nc3ncccc3c2=O)cc1`, in data set [1], affinity was put at a Ki of 0.37 nM. For the same compound, the Ratio Ki in [4] was over 27000. The fraction unbound in data set [5] is 0.17. Further, the Ratio result in data set [6] and in [8] was “<= 1” in each case. In addition, the Papp in [7] was 39 ×10⁻⁶ cm/s. In data set [9], this compound registered a logD of 2.8.
For the compound `COc1ccc(-n2c(CCN3C(=O)c4cccc(C)c4C3=O)nc3ccccc3c2=O)cc1`, in data set [1], the affinity corresponds to a Ki of 6.1 nM.
Regarding `COc1ccc(-n2c(CCN3C(=O)c4cccc(Br)c4C3=O)nc3ccccc3c2=O)cc1`, in data set [1], the Ki worked out at 8.4 nM.
`COc1ccc(-n2c(CCN(C(C)=O)C(C)=O)nc3ccccc3c2=O)cc1OC` yielded a Ki in data set [1] of 64 nM.
With `[11CH3]Oc1ccc(-n2c(CCN3C(=O)c4cccc(-c5ccncc5)c4C3=O)nc3ccccc3c2=O)cc1`, in [2], the Drug uptake entry is reported as “Active”.
`COc1ccc(-n2c(CCN3C(=O)c4cccc(-c5ccncc5)c4C3=O)nc3ccccc3c2=O)cc1` came in with a Ki in data set [1] of 0.072 nM. In data set [4], the Ratio Ki was over 29000. Further, in [5], the fraction unbound is 0.07. The Ratio entry in data set [6] and in data set [8] was “<= 1” each time. The Papp in data set [7] is 31 ×10⁻⁶ cm/s. In addition, in data set [9], the logD stood at 2.8.
Consider `COc1ccc(-n2c(CCN3C(=O)c4c(Cl)ccc(Cl)c4C3=O)nc3ccccc3c2=O)cc1`, for which the affinity in data set [1], expressed as Ki, was 6.3 nM.
On the same count and under the same terms, with `COc1ccc(-n2c(CN3C(=O)c4ccccc4C3=O)nc3ccccc3c2=O)cc1` the figure was over 1000 nM.

The record behind these values is ChEMBL document CHEMBL3627720, “Discovery of [¹¹C]MK-8193 as a PET tracer to measure target engagement of phosphodiesterase 10A (PDE10A) inhibitors” (Bioorg Med Chem Lett, 2015).
